The values below come from patent US12448389B2, “BRM targeting compounds and associated methods of use” (Prelude Therapeutics Incorporated, priority 2020, dated 2025).

The structures appear in SMILES notation.

The target in one test is T1, SMARCA4 (Homo sapiens, UniProt P51532).
T1 construct: endogenous in cells; host or cells: NCI-H520 (given as NCIH520 / NCIH1520 / H520)
Nature of the test: SMARCA4 protein degradation in NCIH520 cells by In Cell Western (ICW). Particulars: highest concentration 1 μM; for DC50: H520 cells, overnight incubation (maximum 18 hours), read-out: DC50 (SM4_H520): SMARCA4 degradation potency; for Dmax: NCI-H520, overnight incubation (maximum 18 hours), read-out: Dmax % (SM4_H520): maximum SMARCA4 degradation within the concentrations tested. Format: cell-based. As to the method:
(§1) Compounds were dissolved in DMSO to make 10 mM stock and 3-fold series dilutions were further conducted keeping the highest concentration 10 μM. NCIH11693 and NCIH1520 cells were maintained in PRMI 1640 medium (Corning Cellgro, Catalog #: 10-040-CV) supplemented with 10% v/v FBS (GE Healthcare, Catalog #: SH30910.03) by splitting 1:3 twice a week.
(§2) SMACRA2 and SMARCA4 Protein Degradation DC50 Values in NCIH1693 and NCIH520 Cells by in Cell Western (ICW) Analysis.
(§3) Cells were trypsinized and 30 thousand cells/well were seeded into 384-well plates and were allowed to grow for 1-2 hours at 37° C. Eight-point, 3-fold serial dilutions of compounds from 0.5 mM stocks were added to the cells (using digital Dispenser D300-Tecan, keeping highest concentration 1 μM and normalizing with DMSO at the highest dispensed volume). Plates were incubated at 37° C. for overnight (maximum 18 hours). Cells incubated with DMSO was used as a vehicle control.
(§4) To perform In Cell Western, medium was removed from all the wells leaving cells attached to the surface. After removing the medium, cells were fixed within the plates with 40 μL of 4% formaldehyde by incubating at room temperature for 30 minutes, and then permeabilized with wash buffer (1×PBS with 0.1% Triton X-100) by washing the plate 5 times with 50 μL/well. Before labeling with primary antibodies, cells were blocked with 30 μL/well of blocking buffer (Licor Odyssey blocking buffer PBS #927-40000) for 30 minutes at room temperature. To measure SMARCA2 or SMARCA4 proteins, cells were labeled with 20 μL/well of anti SMARCA2 or SMACRA4 antibodies (Cell Signaling BRM #11966S 1:800, Cell Signaling BRG #49360S 1:800) diluted in Li-Cor Odyssey blocking buffer-PBS #927-40000, followed by overnight incubation at 4° C.
(§5) The next day, plates were washed 5×5 minutes with 50 μL/well of washing buffer to remove all the excess primary antibody and then 20 μL from a mixture of secondary antibody and fluorescent DNA specific dye (Goat anti rabbit 1:500 IRDye-800CW #92632211, and DRAQ5™ 1:2000-#ab108410) was added to each well. Plates were incubated for 1 hour at room temperature with gentle rocking. Cells were washed 5 times with 50 μL/well wash buffer, followed by one last wash with DI water, followed by 10 mins drying at 37° C. oven before scanning. Plates were scanned using Li-Cor Odyssey CLx imaging system to acquire integrated intensities at 700 nm and 800 nm. SMARCA signals were normalized to total cell count and then these normalized values were used to calculate the percent degradation relative to DMSO control and maximum inhibition. DC50s were calculated by using the GraphPad Prism4 program based on sigmoidal dose response equation ([Inhibitor] vs. normalized response-Variable slope).
(§6) In Table 36, the DC50/Dmax% (SM2_H520) refers to SMARCA2 degradation potency/maximum SMARCA2 degradation within the concentrations in H520 cells and DC50/Dmax% (SM4_H520) refers to SMARCA4 degradation potency/maximum SMARCA4 degradation within the concentrations tested in H520 cells.

A further test has as its target T2, SMARCA2 (Homo sapiens, UniProt P51531).
T2 construct: endogenous in cells; host or cells: NCI-H520 (given as NCIH520 / NCIH1520 / H520)
The test is described as follows: SMARCA2 protein degradation in NCIH520 cells by In Cell Western (ICW). Format: cell-based. Particulars: highest concentration 1 μM; for DC50: H520 cells, overnight incubation (maximum 18 hours), read-out: DC50 (SM2_H520): SMARCA2 degradation potency; for Dmax: NCI-H520, overnight incubation (maximum 18 hours), read-out: Dmax % (SM2_H520): maximum SMARCA2 degradation within the concentrations tested. The method, then:
as §1, §2, §3, §4, §5, §6

For test [1], the system named is SMARCA4 mutated cancer cells. Particulars: SMARCA2/4 bromodomain inhibitor; Vangamudi et al. Cancer Res 2015; cited from earlier work.

T2 sequence (P51531 whole entry): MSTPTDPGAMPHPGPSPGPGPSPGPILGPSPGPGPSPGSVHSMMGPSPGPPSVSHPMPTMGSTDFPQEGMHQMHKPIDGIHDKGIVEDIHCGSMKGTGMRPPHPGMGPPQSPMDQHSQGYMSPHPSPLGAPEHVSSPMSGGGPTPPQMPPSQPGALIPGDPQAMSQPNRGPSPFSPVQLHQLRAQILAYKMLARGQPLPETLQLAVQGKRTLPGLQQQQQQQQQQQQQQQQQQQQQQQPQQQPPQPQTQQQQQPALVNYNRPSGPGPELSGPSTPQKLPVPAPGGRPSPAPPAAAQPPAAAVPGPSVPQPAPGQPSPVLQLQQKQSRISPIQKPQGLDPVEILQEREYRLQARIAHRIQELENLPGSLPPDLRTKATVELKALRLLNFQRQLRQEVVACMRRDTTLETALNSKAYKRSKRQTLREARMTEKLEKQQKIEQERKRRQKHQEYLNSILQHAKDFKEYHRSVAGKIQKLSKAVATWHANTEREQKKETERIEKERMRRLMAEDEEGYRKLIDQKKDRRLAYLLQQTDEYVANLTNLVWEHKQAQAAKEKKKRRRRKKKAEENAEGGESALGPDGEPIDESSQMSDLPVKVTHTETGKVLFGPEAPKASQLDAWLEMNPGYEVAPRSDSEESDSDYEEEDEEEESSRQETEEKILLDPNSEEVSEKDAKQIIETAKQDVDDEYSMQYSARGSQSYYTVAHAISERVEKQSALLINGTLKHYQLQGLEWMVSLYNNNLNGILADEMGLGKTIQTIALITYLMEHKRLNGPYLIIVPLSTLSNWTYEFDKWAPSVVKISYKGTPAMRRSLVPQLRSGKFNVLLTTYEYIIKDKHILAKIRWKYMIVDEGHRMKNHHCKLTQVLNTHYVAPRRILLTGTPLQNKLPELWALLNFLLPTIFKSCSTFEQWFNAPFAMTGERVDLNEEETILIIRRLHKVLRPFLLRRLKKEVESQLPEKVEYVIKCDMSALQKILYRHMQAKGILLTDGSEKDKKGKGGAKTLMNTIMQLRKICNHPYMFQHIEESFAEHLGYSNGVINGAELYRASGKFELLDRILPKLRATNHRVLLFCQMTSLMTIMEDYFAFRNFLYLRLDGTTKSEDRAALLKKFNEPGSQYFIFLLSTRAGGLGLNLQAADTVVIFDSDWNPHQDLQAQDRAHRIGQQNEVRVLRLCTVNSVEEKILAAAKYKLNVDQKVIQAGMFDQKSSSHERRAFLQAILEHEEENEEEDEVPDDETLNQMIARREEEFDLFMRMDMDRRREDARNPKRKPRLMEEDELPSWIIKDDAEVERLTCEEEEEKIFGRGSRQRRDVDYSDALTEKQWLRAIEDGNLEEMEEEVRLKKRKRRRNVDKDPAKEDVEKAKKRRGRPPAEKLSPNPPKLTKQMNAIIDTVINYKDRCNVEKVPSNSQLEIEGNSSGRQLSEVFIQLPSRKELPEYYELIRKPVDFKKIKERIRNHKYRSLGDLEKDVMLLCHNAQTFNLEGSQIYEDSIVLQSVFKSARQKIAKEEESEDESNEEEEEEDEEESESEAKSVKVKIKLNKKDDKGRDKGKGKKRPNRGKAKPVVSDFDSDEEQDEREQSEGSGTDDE
T1 sequence (P51532 whole entry): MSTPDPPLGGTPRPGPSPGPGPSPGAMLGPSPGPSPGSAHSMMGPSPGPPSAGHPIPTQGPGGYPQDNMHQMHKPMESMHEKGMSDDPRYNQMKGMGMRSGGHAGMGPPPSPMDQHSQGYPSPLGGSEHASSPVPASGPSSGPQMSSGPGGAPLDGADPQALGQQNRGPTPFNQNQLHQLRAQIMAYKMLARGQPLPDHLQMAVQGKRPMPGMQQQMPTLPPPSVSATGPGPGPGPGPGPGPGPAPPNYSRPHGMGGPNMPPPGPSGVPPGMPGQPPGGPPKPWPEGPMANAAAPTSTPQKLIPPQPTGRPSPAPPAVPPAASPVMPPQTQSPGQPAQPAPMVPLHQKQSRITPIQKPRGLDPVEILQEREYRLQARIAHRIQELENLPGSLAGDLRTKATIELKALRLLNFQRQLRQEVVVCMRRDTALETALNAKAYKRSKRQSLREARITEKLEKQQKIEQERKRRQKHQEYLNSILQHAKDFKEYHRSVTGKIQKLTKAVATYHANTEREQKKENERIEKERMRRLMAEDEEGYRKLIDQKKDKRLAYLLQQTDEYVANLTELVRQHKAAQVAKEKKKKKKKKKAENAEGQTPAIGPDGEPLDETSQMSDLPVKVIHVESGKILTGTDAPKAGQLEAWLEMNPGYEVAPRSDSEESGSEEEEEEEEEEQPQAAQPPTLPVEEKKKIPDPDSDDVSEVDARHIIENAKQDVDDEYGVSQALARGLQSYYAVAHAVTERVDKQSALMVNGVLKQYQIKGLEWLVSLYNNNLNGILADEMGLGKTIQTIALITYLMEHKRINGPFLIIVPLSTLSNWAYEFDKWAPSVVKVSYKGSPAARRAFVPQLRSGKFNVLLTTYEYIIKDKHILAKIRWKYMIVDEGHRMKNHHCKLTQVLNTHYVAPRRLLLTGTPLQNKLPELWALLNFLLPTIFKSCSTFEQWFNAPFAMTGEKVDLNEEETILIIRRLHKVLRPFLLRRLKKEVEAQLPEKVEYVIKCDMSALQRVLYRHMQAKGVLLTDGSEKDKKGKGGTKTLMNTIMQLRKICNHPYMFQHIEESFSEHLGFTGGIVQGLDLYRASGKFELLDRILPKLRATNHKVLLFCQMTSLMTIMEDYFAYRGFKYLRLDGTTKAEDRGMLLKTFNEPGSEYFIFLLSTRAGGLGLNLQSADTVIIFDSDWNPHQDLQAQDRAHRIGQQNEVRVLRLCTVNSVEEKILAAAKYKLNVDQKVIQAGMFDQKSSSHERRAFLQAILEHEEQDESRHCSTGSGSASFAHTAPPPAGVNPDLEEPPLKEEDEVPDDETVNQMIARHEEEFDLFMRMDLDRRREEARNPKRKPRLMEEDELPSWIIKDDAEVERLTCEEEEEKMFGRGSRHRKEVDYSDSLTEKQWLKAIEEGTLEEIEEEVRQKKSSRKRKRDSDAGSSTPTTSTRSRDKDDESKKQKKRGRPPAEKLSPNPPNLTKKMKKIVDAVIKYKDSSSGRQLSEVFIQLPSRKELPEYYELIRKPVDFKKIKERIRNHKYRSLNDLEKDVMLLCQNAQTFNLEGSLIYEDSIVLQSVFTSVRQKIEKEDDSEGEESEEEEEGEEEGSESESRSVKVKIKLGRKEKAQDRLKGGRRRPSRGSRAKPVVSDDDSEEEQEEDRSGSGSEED

Take `O=C1CCC(N2C(=O)c3ccc(N4CCC(OCCN5CCC(N6CCN7c8cc(-c9ccccc9O)nnc8NC[C@H]7C6)CC5)CC4)cc3C2=O)C(=O)N1` (stereo partly drawn) [Example 16, 2-(2,6-Dioxopiperidin-3-yl)-5-(4-(2-(4-((S)-2-(2-hydroxyphenyl)-5,6,6a,7,9,10-hexahydro-8H-pyrazino[1′,2′:4,5]pyrazino[2,3-c]pyridazin-8-yl)piperidin-1-yl)ethoxy)piperidin-1-yl) isoindoline-1,3-dione]: the DC50 at SMARCA4 and on SMARCA2 was less than 100 nM in each case. Besides, the Dmax was 50 to 75% on SMARCA4 and more than 75% on SMARCA2.
With `O=C1CCC(N2Cc3ccc(N4CCN(CCN5CCC(N6CCN7c8cc(-c9ccccc9O)nnc8NC[C@H]7C6)CC5)CC4)cc3C2=O)C(=O)N1` (stereo partly drawn) [Example 17, 3-(6-(4-(2-(4-((S)-2-(2-hydroxyphenyl)-5,6,6a,7,9,10-hexahydro-8H-pyrazino [1′,2′:4,5]pyrazino[2,3-c]pyridazin-8-yl)piperidin-1-yl)ethyl)piperazin-1-yl)-1-oxoisoindolin-2-yl)piperidine-2,6-dione], on SMARCA4, the DC50 is less than 100 nM and the Dmax is more than 75%. For the same compound, on SMARCA2, the DC50 was less than 100 nM and the Dmax is more than 75%.
`O=C1CCC(n2c3ccc(CCCN4CCC(c5cnc(N6CCN7c8cc(-c9ccccc9O)nnc8NC[C@@H]7C6)nc5)CC4)cc3c3cccnc32)C(=O)N1` (stereo partly drawn) [Example 18, 3-(6-(3-(4-(2-((R)-2-(2-hydroxyphenyl)-5,6,6a,7,9,10-hexahydro-8H-pyrazino [1′,2′:4,5]pyrazino[2,3-c]pyridazin-8-yl)pyrimidin-5-yl)piperidin-1-yl)propyl)-9H-pyrido [2,3-b]indol-9-yl)piperidine-2,6-dione]: at SMARCA4, the 50% degradation concentration (DC50) was less than 100 nM and the Dmax was more than 75%. Also, on SMARCA2, the 50% degradation concentration (DC50) is less than 100 nM and the Dmax is more than 75%.
For `O=C1CCC(n2c3ccc(CCCN4CCC(N5CCN6c7cc(-c8ccccc8O)nnc7NC[C@H]6C5)CC4)cc3c3cccnc32)C(=O)N1` (stereo partly drawn) [Example 19, 3-(6-(3-(4-((S)-2-(2-hydroxyphenyl)-5,6,6a,7,9,10-hexahydro-8H-pyrazino [1′,2′:4,5]pyrazino[2,3-c]pyridazin-8-yl)piperidin-1-yl)propyl)-9H-pyrido[2,3-b]indol-9-yl) piperidine-2,6-dione], at SMARCA4, the DC50 was less than 100 nM and the Dmax was more than 75%. On SMARCA2, the DC50 was less than 100 nM and the Dmax is more than 75%.
Consider `O=C1CCC(n2c3ccc(CCCN4CCC(N5CCC(N6CCN7c8cc(-c9ccccc9O)nnc8NC[C@H]7C6)CC5)CC4)cc3c3cccnc32)C(=O)N1` (stereo partly drawn) [Example 20, 3-(6-(3-(4-((S)-2-(2-hydroxyphenyl)-5,6,6a,7,9,10-hexahydro-8H-pyrazino [1′,2′:4,5]pyrazino[2,3-c]pyridazin-8-yl)-[1,4′-bipiperidin]-1′-yl)propyl)-9H-pyrido[2,3-b]indol-9-yl)piperidine-2,6-dione], for which, at SMARCA4, the half-maximal degradation concentration (DC50) is less than 100 nM and the Dmax was more than 75%. Besides, at SMARCA2, the 50% degradation concentration (DC50) is less than 100 nM and the Dmax was more than 75%.
With `O=C1CCC(n2c3ccc(CCCN4CCC(N5CC(N6CCN7c8cc(-c9ccccc9O)nnc8NC[C@H]7C6)C5)CC4)cc3c3cccnc32)C(=O)N1` (stereo partly drawn) [Example 21, 3-(6-(3-(4-(3-((S)-2-(2-hydroxyphenyl)-5,6,6a,7,9,10-hexahydro-8H-pyrazino [1′,2′:4,5]pyrazino[2,3-c]pyridazin-8-yl)azetidin-1-yl)piperidin-1-yl)propyl)-9H-pyrido[2,3-b]indol-9-yl)piperidine-2,6-dione], the DC50 at SMARCA4 and at SMARCA2 was less than 100 nM each time. Also, the Dmax on SMARCA4 and on SMARCA2 was more than 75% each time.
Take `O=C1CCC(n2c3ccc(CCCN4CCN(CCN5CCN6c7cc(-c8ccccc8O)nnc7NC[C@H]6C5)CC4)cc3c3cccnc32)C(=O)N1` (stereo partly drawn) [Example 22, 3-(6-(3-(4-(2-((S)-2-(2-hydroxyphenyl)-5,6,6a,7,9,10-hexahydro-8H-pyrazino [1′,2′:4,5]pyrazino[2,3-c]pyridazin-8-yl)ethyl)piperazin-1-yl)propyl)-9H-pyrido[2,3-b]indol-9-yl)piperidine-2,6-dione]: at SMARCA4, the DC50 is less than 100 nM and the Dmax is more than 75%. On SMARCA2, the DC50 was less than 100 nM and the Dmax was more than 75%.
Regarding `O=C(/C=C/N1C[C@H]2C[C@@H]1CN2c1ccccn1)c1ccccc1O` [PFI-3], in test [1], the “effects on cell proliferation inhibition” value is reported as “none to minor effects”.
